Experiments:
skin = conditions: cited from earlier work
[1] = test system: animal models of skin inflammation; conditions: in vivo; cited from earlier work
[2] = Solubility of pimecrolimus in different solvents (HPLC after 24-hour equilibration at 25 °C); type: physicochemical
Protocol: FIG. 2: Solubility of pimecrolimus in different solvents. […] Form B refers to the anhydrous, crystalline polymorph B of pimecrolimus that has been used in the manufacture of the composition according to the invention. The legend in the lower table defines the terms used for the categorization of solubility.
The solubility of pimecrolimus in different solvents was determined by HPLC after 24-hour equilibration (vibration) at 25.0+/−0.5° C. After the vibration, the precipitate was separated from the solution, dried and investigated by DSC and by X-ray diffraction pattern.

[3] = slightly soluble in water; cited from earlier work

In the case of `CC[C@@H]1/C=C(\C)C[C@H](C)C[C@H](OC)[C@H]2O[C@@](O)(C(=O)C(=O)N3CCCC[C@H]3C(=O)O[C@H](/C(C)=C/[C@@H]3CC[C@H](Cl)[C@H](OC)C3)[C@H](C)[C@@H](O)CC1=O)[C@H](C)C[C@@H]2OC` [pimecrolimus, (1R,9S,12S,13R,14S,17R,18E,21S,23S,24R,25S,27R)-12-[(1E)-2-{(1R,3R,4S)-4-chloro-3-methoxycyclohexyl}-1-methylvinyl]-17-ethyl-1,14-dihydroxy-23,25-dimethoxy-13,19,21,27-tetramethyl-11,28-dioxa-4-aza-tricyclo[22.3.1.04,9]octacos-18-ene-2,3,10,16-tetraone], the “Potential for systemic immunosuppression” value (skin; compared with cyclosporin A and tacrolimus) is given as “lower potential for systemic immunosuppression than cyclosporin A and tacrolimus”, the “Anti-inflammatory activity in the skin, topical” value (skin; compared with cyclosporin A) is given as “greater anti-inflammatory activity in the skin than cyclosporin A” and the “Skin atrophy” value (skin; in contrast to steroids) is given as “does not induce skin atrophy”. For the same molecule, the “Efficacy in animal models of skin inflammation” value [1] was “highly effective”, the “Solubility in excipients that can be used in semi-solid formulations for dermal and ophthalmic use” value [2] was “very poor” and the “Solubility in aqueous solutions and water” value ([2]; 24-hour equilibration at 25.0+/-0.5 °C, HPLC, FIG. 2) was “insoluble”.
In the case of `OCCc1ccccc1` [Phenyl ethyl alcohol, 2-phenyl-ethan-1-ol], the Solubility in water [3] is given as 2 ml/100 ml H2O.
